Values after ≈ are worked out from the molar mass of the structure shown. Where two headings read alike, the source gives them in different places.
Assay: Water solubility of flavoring agents and their flavor glucosides
Settings: for Glucoside water solubility: flavoring agent in the form of its flavor glucoside
[1] = free flavoring agent, not bound to sugar, water

| Molecule | Glucoside water solubility (water) [mg/mL] | solubility (water) [mg/mL] | also measured |
| --- | --- | --- | --- |
| CC1(C)C2CC=C(CO[C@@H]3O[C@H](CO)[C@@H](O)[C@H](O)[C@H]3O)C1C2 (stereo partly drawn) [Myrtenol glucoside, 6,6-dimethylbicyclo(3.1.1)hept-2-ene-2-methyl-O-β-D-glucopyranoside] | 525 | – | – |
| CC(C)=CCC/C(C)=C\CO[C@@H]1O[C@H](CO)[C@@H](O)[C@H](O)[C@H]1O [Nerol glucoside, (2Z)-3,7-dimethyl-2,6-octadien-1-yl-O-β-D-glucopyranoside] | 16.6 | – | – |
| (2/5)-ethyl-5 (or 2)-methyl-3(2H)-furanone-4-O-β-D-glucopyranoside [Homofuraneol glucoside] | 749 | – | – |
| CC1=C(O)C(=O)OC1C (centres unmarked) [Sotolon] | – | – | Flavoring Agent water solubility [1]: 22.28 mg/mL |
| Cc1occc(=O)c1O [Maltol] | – | 10.9 (≈ 86.4 mM) | – |
| Oc1ccc2c(c1)OCO2 [Sesamol] | – | – | Flavoring Agent water solubility [1]: 14.65 mg/mL |
| CC12CCC(C1)C(C)(C)C2O (centres unmarked) [Fenchol] | – | 0.461 (≈ 2.99 mM) | – |
| C=C(C)C1CC=C(CO[C@@H]2O[C@H](CO)[C@@H](O)[C@H](O)[C@H]2O)CC1 (stereo partly drawn) [Perillyl alcohol glucoside, p-mentha-1,8-dien-7-yl-O-β-D-glucopyranoside] | 485 | – | – |
| COc1cc(CO)ccc1O [Vanillin-Alcohol] | – | – | Flavoring Agent water solubility [1]: 2 mg/mL; water solubility (free flavoring agent, at 25° C.): approximately 2 g/I |
| CC/C=C\CCO [cis-3-Hexen-1-ol] | – | 16 (≈ 160 mM) | – |
| CC1CCC(C(C)C)C(O)C1 (centres unmarked) [Menthol] | – | 0.49 (≈ 3.14 mM) | – |
| CCC1OC(=O)C(O)=C1C (centres unmarked) [Maple furanone] | – | – | Flavoring Agent water solubility [1]: 74.39 mg/mL |
| C=CC(C)(CCC=C(C)C)O[C@@H]1O[C@H](CO)[C@@H](O)[C@H](O)[C@H]1O (stereo partly drawn) [Linalool glucoside, 1-ethenyl-1,5-dimethyl-4-hexen-1-yl-O-β-D-glucopyranoside] | 564 | – | – |
| Cc1occc(=O)c1O[C@@H]1O[C@H](CO)[C@@H](O)[C@H](O)[C@H]1O [Maltol glucoside, 2-methyl-4H-pyran-4-one-3-O-β-D-glucopyranoside] | 535 | – | – |
| CC1=C(O)C(=O)C(C)O1 (centres unmarked) [Furaneol] | – | 18.5 (≈ 144 mM) | – |
| C=C(C)[C@@H]1CC=C(CO)CC1 [Perillyl alcohol] | – | 0.471 (≈ 3.09 mM) | – |
| CC(C)=CCC/C(C)=C\CO [Nerol] | – | 0.256 (≈ 1.66 mM) | – |
| CCc1occc(=O)c1O [Ethylmaltol] | – | – | Flavoring Agent water solubility [1]: 24.23 mg/mL |
| CCCCCCO[C@@H]1O[C@H](CO)[C@@H](O)[C@H](O)[C@H]1O [1-Hexanol glucoside, hex-1-yl-O-β-D-glucopyranoside] | 676 | – | – |
| CC(C)=CCCC(C)CCO[C@@H]1O[C@H](CO)[C@@H](O)[C@H](O)[C@H]1O (stereo partly drawn) [Citronellol glucoside, 3,7-dimethyl-6-octen-1-yl-O-β-D-glucopyranoside] | 519 | – | – |
| C=CCc1ccc(O)c(OC)c1 [Eugenol] | – | 2.46 (≈ 15 mM) | – |
| CC(C)=CCC/C(C)=C/CO [Geraniol] | – | 0.1 (≈ 0.648 mM) | – |
| OC[C@H]1O[C@@H](OCCc2ccccc2)[C@H](O)[C@@H](O)[C@@H]1O [2-Phenylethanol glucoside, 2-phenyleth-1-yl-O-β-D-glucopyranoside] | 833 | – | – |

| Molecule | Glucoside water solubility (water) [mg/mL] | solubility (water) [mg/mL] | also measured |
| --- | --- | --- | --- |
| CC(C)=CCC/C(C)=C/CO[C@@H]1O[C@H](CO)[C@@H](O)[C@H](O)[C@H]1O [Geraniol glucoside, (2E)-3,7-dimethyl-2,6-octadien-1-yl-O-β-D-glucopyranoside] | 627 | – | – |
| CCC1OC(C)=C(O)C1=O (centres unmarked) [Homofuraneol] | – | – | Flavoring Agent water solubility [1]: 6.178 mg/mL |
| CC1=CCC(C(C)(C)O)CC1 (stereo not drawn) [Alpha-Terpineol] | – | 0.71 (≈ 4.6 mM) | – |
| CCc1occc(=O)c1O[C@@H]1O[C@H](CO)[C@@H](O)[C@H](O)[C@H]1O [Ethylmaltol glucoside, 2-ethyl-4H-pyran-4-one-3-O-β-D-glucopyranoside] | 662 | – | – |
| OCCc1ccccc1 [2-Phenylethanol] | – | – | Flavoring Agent water solubility [1]: 21.99 mg/mL |
| COC(=O)c1ccccc1N[C@@H]1O[C@H](CO)[C@@H](O)[C@H](O)[C@H]1O [Methylanthranilate glucoside, methyl-2-aminobenzoate-N-β-D-glucopyranoside] | 35 | – | – |
| COc1cc(CO)ccc1O[C@@H]1O[C@H](CO)[C@@H](O)[C@H](O)[C@H]1O [Vanillin-Alcohol glucoside, 3-methoxy-benzyl alcohol-4-O-β-D-glucopyranoside] | 62 | – | increase of water solubility (glucoside vs flavoring agent): 32 × |
| (S)-2-(4-methyl-3-cyclohexenyl)-2-propanyl-O-β-D-glucopyranoside [Alpha-Terpineol glucoside] | 172 | – | – |
| CC(C)=CCCC(C)=CCCC(C)=CCO [Farnesol] | – | 0.00129 (≈ 0.0058 mM) | – |
| CC12CCC(C1)C(C)(C)C2O[C@@H]1O[C@H](CO)[C@@H](O)[C@H](O)[C@H]1O (stereo partly drawn) [Fenchol glucoside, 1,3,3-trimethyl-bicyclo[2.2.1]heptan-2-yl-O-β-D-glucopyranoside] | 4 | – | – |
| CC1=C(O[C@@H]2O[C@H](CO)[C@@H](O)[C@H](O)[C@H]2O)C(=O)OC1C (stereo partly drawn) [Sotolon glucoside, 4,5-dimethylfuran-2(5H)-one-3-O-β-D-glucopyranoside] | 502 | – | – |
| C=CCc1ccc(O[C@@H]2O[C@H](CO)[C@@H](O)[C@H](O)[C@H]2O)c(OC)c1 [Eugenol glucoside, 2-methoxy-4-(2-propen-1-yl)phenyl-O-β-D-glucopyranoside] | 15.1 | – | – |
| CC1(C)C2CC=C(CO)C1C2 (centres unmarked) [Myrtenol] | – | – | Flavoring Agent water solubility [1]: 0.261 mg/mL |
| C=CC(CCCCC)O[C@@H]1O[C@H](CO)[C@@H](O)[C@H](O)[C@H]1O (stereo partly drawn) [1-Octen-3-ol glucoside, 1-octen-3-yl-O-β-D-glucopyranoside] | 200 | – | – |
| CC(C)=CCCC(C)=CCCC(C)=CCO[C@@H]1O[C@H](CO)[C@@H](O)[C@H](O)[C@H]1O [Farnesol glucoside, 3,7,11-trimethyl-2,6,10-dodecatrien-1-yl-O-β-D-glucopyranoside] | 1 | – | – |
| C=CC(O)CCCCC (centres unmarked) [1-Octen-3-ol] | – | 1.84 (≈ 14.3 mM) | – |
| CC1=C(O[C@@H]2O[C@H](CO)[C@@H](O)[C@H](O)[C@H]2O)C(=O)C(C)O1 (stereo partly drawn) [Furaneol glucoside, 2,5-dimethyl-3(2H)-furanone-4-O-β-D-glucopyranoside] | 731 | – | – |
| Cc1ccc(C(C)C)cc1O [Carvacrol] | – | – | Flavoring Agent water solubility: 1.25 mg/mL |
| CC(C)=CCCC(C)CCO (centres unmarked) [Citronellol] | – | 0.106 (≈ 0.678 mM) | – |
| CC/C=C\CCO[C@@H]1O[C@H](CO)[C@@H](O)[C@H](O)[C@H]1O [cis-3-Hexen-1-ol glucoside, (3Z)-3-hexen-1-yl-O-β-D-glucopyranoside] | 598 | – | – |
| CCC1OC(=O)C(O[C@@H]2O[C@H](CO)[C@@H](O)[C@H](O)[C@H]2O)=C1C (stereo partly drawn) [Maple furanone glucoside, 5-ethyl-3-hydroxy-4-methyl-2(5H)-furanone-3-O-β-D-glucopyranoside] | 772 | – | – |
| C=CC(C)(O)CCC=C(C)C (centres unmarked) [Linalool] | – | 0.68 (≈ 4.41 mM) | – |

Reference: patent US20240008524A1, “CONSUMABLE” (Nicoventures Trading Limited, priority 2020, published 2024)
